Data published in patent US7829118B1, “Modified hyaluronic acid polymer compositions and related methods” (Carbylan Biosurgery, Inc., priority 2009, dated 2010).
“And” between values parts separate entries of the source, which are not always exact repeats. Identical values can stand only once.

Test system: Femoral Cartilage (medial femoral condyle) of goat stifle joint
Experiment: Modified Mankin scoring of femoral cartilage after intra-articular injection in goats (Example 34)
Assay type: in vivo
Settings: for Total Mankin Score / Mankin Score: Tide Mark Integrity / Mankin Score: Cells / Mankin Score: Safranin-O Stain / Mankin Score: Structure: RFC
Procedure: A lightly crosslinked hydrogel prepared by reaction of vinyl-sulfone-modified hyaluronic acid with PEG-dithiol (HA-VS-PEG-(SH)2), containing the corticosteroid, triamcinolone acetonide, was injected into the intraarticular space of the stifle joint of female goats. Morphological, synovial fluid and histological examinations were conducted to evaluate local and systemic effects of such injections. Details of the study are provided below.
All test materials were stored at room temperature prior to use. For each Test or Control Material, a 1.5 ml dosage was prepared for each individual intra-articular injection.
Study design was as follows.
The basic procedure for injection was identical for all subjects. All injections were performed under strict asepsis. The animals were anesthetized with an intravenous injection of Diazepam (0.1-0.5 mg/kg) and Ketamine (4.4-7.5 mg/kg) to effect. Each knee was physically examined for drawer, range of motion, swelling, temperature, crepitus, patella tracking, and valgus/varus abnormalities
All injections were conducted utilizing routine aseptic techniques. The left and right stifles were prepared for injection by clipping the areas, then cleansing them with chlorohexidine scrub. The animal was placed in dorsal recumbency. The right stifle was cleansed with chlorohexidine scrub alternating with 70% isopropyl alcohol three times and painted with iodine solution.
A standard technique was used to inject each stifle joint. A 2-inch by 21gauge sized sterile needle was introduced into the intra-articular space via an anteromedial approach. The lateral intercondylar notch wall of the medial femoral condyle was felt and the needle backed slightly off. 1.5 ml of the appropriate Test Material was injected into the right joint. The injection needle was removed and pressure was maintained on the injection site. The injected stifle joint was then cycled 20-times through a full range of motion. Immediately following this, the left stifle joint was cleansed with chlorohexidine scrub alternating with 70% isopropyl alcohol three times and painted with iodine solution and 1.5 ml of the Control Material was injected into the left stifle joint in a similar manner as described above for the right stifle. The injection needle was removed and pressure maintained on the injection site. The injected stifle joint was then cycled 20-times through a full range of motion.
Necropsy: Animals were humanely sacrificed at either 14 days or 28 days day post initial injection with an intravenous injection consisting of Diazepam 0.22 mg/kg and Ketamine 10 mg/kg for induction of general anesthesia. Following this, the anesthetized animals were given an IV overdose of concentrated potassium chloride (KCl) until the cardiac arrest had been verified.
Immediately after dissection and following gross joint surface evaluation a sagital section of each joint was cut through the medial femoral condyle (MFC). These sections were placed individually in 10% neutral buffered formalin. The fixed tissue was shipped by overnight carrier to Premier Laboratories for processing. The right and left MFC sections were processed using standard histological techniques and stained with hematoxylin and eosin (H&E) and Safranin-O (SAF-O) with a fast green counter stain. The slides from the MFC sections were evaluated by the Mankin Scoring System for osteoarthritis as described in Table 12.

[1] = Group 3, 2mg/ml, 14 day evaluation, MEAN
[2] = Group 7, 2mg/ml, 28 day evaluation, MEAN
[3] = Group 4, 8mg/ml, 14 day evaluation, MEAN
[4] = Group 8, 8mg/ml, 28 day evaluation, MEAN, animal that died prematurely not included

CC1(C)O[C@@H]2C[C@H]3[C@@H]4CCC5=CC(=O)C=C[C@]5(C)[C@@]4(F)[C@@H](O)C[C@]3(C)[C@]2(C(=O)CO)O1 [Triamcinolone Acetonide, triamcinolone acetonide]
loss of Safranin O staining intensity portion of the modified Mankin score compared to either Groups 5 or 6 (Day 28, Groups 7 and 8 (2 and 8 mg/ml)): mild increase | change in modified Mankin scores from Day 14 to Day 28 (goat stifle, 1.5 ml intra-articular): increase

CC1(C)O[C@@H]2C[C@H]3[C@@H]4CCC5=CC(=O)C=C[C@]5(C)[C@@]4(F)[C@@H](O)C[C@]3(C)[C@]2(C(=O)CO)O1 [Triamcinolone Acetonide 2mg/ml, triamcinolone acetonide]
Total Mankin Score (Group 3, 2mg/ml, 14 day evaluation, right stifle 1.5 ml intra-articular, individual goats, maximal 14, normal 0): 4.0 and 7.0 and 8.0 | Mankin Score: Tide Mark Integrity (Group 3, 2mg/ml, 14 day evaluation, right stifle 1.5 ml intra-articular, individual goats, score 0-1): 0.0 | Mankin Score: Cells (Group 3, 2mg/ml, 14 day evaluation, right stifle 1.5 ml intra-articular, individual goats, score 0-3): 0.0 and 1.0 (2×) | Mankin Score: Safranin-O Stain (Group 3, 2mg/ml, 14 day evaluation, right stifle 1.5 ml intra-articular, individual goats, score 0-4): 4.0 and 2.0 and 3.0 | Mankin Score: Structure (Group 3, 2mg/ml, 14 day evaluation, right stifle 1.5 ml intra-articular, individual goats, score 0-6): 0.0 and 4.0 (2×) | Mankin Score: Cells [1]: 0.7 | Mankin Score: Safranin-O Stain [1]: 3.0 | Mankin Score: Structure [1]: 2.7 | Mankin Score: Tide Mark Integrity [1]: 0.0 | Total Mankin Score [1]: 6.3 | Total Mankin Score (Group 7, 2mg/ml, 28 day evaluation, right stifle 1.5 ml intra-articular, individual goats, maximal 14, normal 0): 6.0 and 9.0 and 10.0 | Mankin Score: Tide Mark Integrity (Group 7, 2mg/ml, 28 day evaluation, right stifle 1.5 ml intra-articular, individual goats, score 0-1): 0.0 | Mankin Score: Cells (Group 7, 2mg/ml, 28 day evaluation, right stifle 1.5 ml intra-articular, individual goats, score 0-3): 2.0 (2×) and 3.0 | Mankin Score: Safranin-O Stain (Group 7, 2mg/ml, 28 day evaluation, right stifle 1.5 ml intra-articular, individual goats, score 0-4): 4.0 and 3.0 (2×) | Mankin Score: Structure (Group 7, 2mg/ml, 28 day evaluation, right stifle 1.5 ml intra-articular, individual goats, score 0-6): 0.0 and 4.0 (2×) | Mankin Score: Cells [2]: 2.3 | Mankin Score: Safranin-O Stain [2]: 3.3 | Mankin Score: Structure [2]: 2.7 | Mankin Score: Tide Mark Integrity [2]: 0.0 | Total Mankin Score [2]: 8.3

CC1(C)O[C@@H]2C[C@H]3[C@@H]4CCC5=CC(=O)C=C[C@]5(C)[C@@]4(F)[C@@H](O)C[C@]3(C)[C@]2(C(=O)CO)O1 [Triamcinolone Acetonide 8mg/ml, triamcinolone acetonide]
Total Mankin Score (Group 4, 8mg/ml, 14 day evaluation, right stifle 1.5 ml intra-articular, individual goats, maximal 14, normal 0): 9.0 and 3.0 and 4.0 | Mankin Score: Tide Mark Integrity (Group 4, 8mg/ml, 14 day evaluation, right stifle 1.5 ml intra-articular, individual goats, score 0-1): 0.0 | Mankin Score: Cells (Group 4, 8mg/ml, 14 day evaluation, right stifle 1.5 ml intra-articular, individual goats, score 0-3): 1.0 and 0.0 (2×) | Mankin Score: Safranin-O Stain (Group 4, 8mg/ml, 14 day evaluation, right stifle 1.5 ml intra-articular, individual goats, score 0-4): 3.0 (2×) and 4.0 | Mankin Score: Structure (Group 4, 8mg/ml, 14 day evaluation, right stifle 1.5 ml intra-articular, individual goats, score 0-6): 5.0 and 0.0 (2×) | Mankin Score: Cells [3]: 0.3 | Mankin Score: Safranin-O Stain [3]: 3.3 | Mankin Score: Structure [3]: 1.7 | Mankin Score: Tide Mark Integrity [3]: 0.0 | Total Mankin Score [3]: 5.3 | Total Mankin Score (Group 8, 8mg/ml, 28 day evaluation, right stifle 1.5 ml intra-articular, individual goats (3588 RFC* died prematurely, 19 days), maximal 14, normal 0): 12.0 and 6.0 | Total Mankin Score (Group 8, 8mg/ml, 28 day evaluation, right stifle 1.5 ml intra-articular, individual goats (3588 RFC* died prematurely, 19 days), maximal 14, normal 0, listed as Triamcinolone Acetonide 8mg/m1): 10.0 | Mankin Score: Tide Mark Integrity (Group 8, 8mg/ml, 28 day evaluation, right stifle 1.5 ml intra-articular, individual goats (3588 RFC* died prematurely, 19 days), score 0-1): 0.0 | Mankin Score: Cells (Group 8, 8mg/ml, 28 day evaluation, right stifle 1.5 ml intra-articular, individual goats (3588 RFC* died prematurely, 19 days), score 0-3): 3.0 and 1.0 | Mankin Score: Cells (Group 8, 8mg/ml, 28 day evaluation, right stifle 1.5 ml intra-articular, individual goats (3588 RFC* died prematurely, 19 days), score 0-3, listed as Triamcinolone Acetonide 8mg/m1): 3.0 | Mankin Score: Safranin-O Stain (Group 8, 8mg/ml, 28 day evaluation, right stifle 1.5 ml intra-articular, individual goats (3588 RFC* died prematurely, 19 days), score 0-4): 4.0 | Mankin Score: Safranin-O Stain (Group 8, 8mg/ml, 28 day evaluation, right stifle 1.5 ml intra-articular, individual goats (3588 RFC* died prematurely, 19 days), score 0-4, listed as Triamcinolone Acetonide 8mg/m1): 3.0 | Mankin Score: Structure (Group 8, 8mg/ml, 28 day evaluation, right stifle 1.5 ml intra-articular, individual goats (3588 RFC* died prematurely, 19 days), score 0-6): 5.0 and 1.0 | Mankin Score: Structure (Group 8, 8mg/ml, 28 day evaluation, right stifle 1.5 ml intra-articular, individual goats (3588 RFC* died prematurely, 19 days), score 0-6, listed as Triamcinolone Acetonide 8mg/m1): 4.0 | Mankin Score: Cells [4]: 2.0 | Mankin Score: Safranin-O Stain [4]: 4.0 | Mankin Score: Structure [4]: 3.0 | Mankin Score: Tide Mark Integrity [4]: 0.0 | Total Mankin Score [4]: 9.0
